pIC50: −log10 of the molar value.

What all share (format): binding
The target of one test is T1, MAP3K11 (Homo sapiens, UniProt Q16584).
T1 construct: endogenous in cells; host or cells: K562
The experiment in a line: KAM-matrix competition in K562 lysate.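 Also: median log10 fold change of treatment over DMSO control.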 The conditions noted are these: relative to 0 uM KAM = 0. How it is done: Supplement 12953_2017_125_MOESM1_ESM.zip/MS_Supp Info.xlsx, sheet "KAM" | column: 10 uM KAM; 1 uM KAM; 0.1 uM KAM; 0.001 uM KAM

Another test addresses T2, ALPK3 (Homo sapiens, UniProt Q96L96).
T2 construct: endogenous in cells; host or cells: K562
In words: Imatinib-matrix competition in K562 lysate. The conditions noted are these: read-out: RB50 (the source's name). The source says: (§1) Data were visualized for further analysis using Spotfire DXP.

In a further test the target is T3, ATR (Homo sapiens, UniProt Q13535).
T3 construct: endogenous in cells; host or cells: K562
In words: Imatinib-matrix competition in K562 lysate. The settings on record: read-out: RB50 (the source's name).
Text: as §1

The target of another test is T4, BRD4 (Homo sapiens, UniProt O60885).
T4 construct: endogenous in cells; host or cells: K562
In words: Imatinib-matrix competition in K562 lysate. The conditions noted are these: read-out: RB50 (the source's name).
Text: as §1

The target of a further test is T5, BUB1B (Homo sapiens, UniProt O60566).
T5 construct: endogenous in cells; host or cells: K562
In words: Imatinib-matrix competition in K562 lysate. The settings on record: read-out: RB50 (the source's name).
Text: as §1

Another test addresses T6, CDC7 (Homo sapiens, UniProt O00311).
T6 construct: endogenous in cells; host or cells: K562 lysate
The experiment in a line: Imatinib-matrix competition in K562 lysate. The conditions noted are these: read-out: RB50 (the source's name).
Text: as §1

For another test, the target named is T7, EEF2K (Homo sapiens, UniProt O00418).
T7 construct: endogenous in cells; host or cells: K562 lysate
T7 sequence (O00418 1-725): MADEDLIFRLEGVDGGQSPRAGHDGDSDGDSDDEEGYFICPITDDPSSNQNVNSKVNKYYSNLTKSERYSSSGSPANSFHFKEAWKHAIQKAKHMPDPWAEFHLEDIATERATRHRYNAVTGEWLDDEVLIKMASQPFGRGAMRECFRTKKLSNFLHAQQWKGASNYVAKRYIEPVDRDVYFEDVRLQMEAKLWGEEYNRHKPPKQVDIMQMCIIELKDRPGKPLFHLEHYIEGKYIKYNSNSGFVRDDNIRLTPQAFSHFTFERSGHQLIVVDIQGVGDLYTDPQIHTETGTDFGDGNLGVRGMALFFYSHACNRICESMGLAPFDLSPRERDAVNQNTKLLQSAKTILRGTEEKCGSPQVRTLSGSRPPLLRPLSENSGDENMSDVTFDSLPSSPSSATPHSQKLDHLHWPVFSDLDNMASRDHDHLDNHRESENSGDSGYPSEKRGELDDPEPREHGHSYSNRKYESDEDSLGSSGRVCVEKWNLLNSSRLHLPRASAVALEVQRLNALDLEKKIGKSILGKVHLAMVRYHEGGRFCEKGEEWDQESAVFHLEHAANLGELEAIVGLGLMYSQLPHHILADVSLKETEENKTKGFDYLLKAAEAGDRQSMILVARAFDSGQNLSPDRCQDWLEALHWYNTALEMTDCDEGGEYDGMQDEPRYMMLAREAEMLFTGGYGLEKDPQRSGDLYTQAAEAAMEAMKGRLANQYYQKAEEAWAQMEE
The experiment in a line: Imatinib-matrix competition in K562 lysate. The conditions noted are these: read-out: RB50 (the source's name).
Text: as §1

The target in a further test is T8, NRK (Homo sapiens, UniProt Q7Z2Y5).
T8 construct: endogenous in cells; host or cells: K562
The experiment in a line: Imatinib-matrix competition in K562 lysate. The conditions noted are these: read-out: RB50 (the source's name).
Text: as §1

Another test concerns the target T9, PBK (Homo sapiens, UniProt Q96KB5).
T9 construct: endogenous in cells; host or cells: K562
T9 sequence (Q96KB5 1-322): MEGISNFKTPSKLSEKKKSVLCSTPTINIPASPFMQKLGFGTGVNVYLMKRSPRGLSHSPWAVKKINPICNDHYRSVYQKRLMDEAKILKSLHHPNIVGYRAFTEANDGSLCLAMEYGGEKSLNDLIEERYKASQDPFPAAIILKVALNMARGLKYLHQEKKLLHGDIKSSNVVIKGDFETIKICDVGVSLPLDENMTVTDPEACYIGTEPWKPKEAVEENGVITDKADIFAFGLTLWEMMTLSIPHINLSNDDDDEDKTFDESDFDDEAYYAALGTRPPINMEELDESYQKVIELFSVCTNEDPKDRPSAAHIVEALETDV
In words: Imatinib-matrix competition in K562 lysate. The conditions noted are these: read-out: RB50 (the source's name).
Text: as §1

The next test addresses T10, RP1 (Homo sapiens, UniProt P56715).
T10 construct: endogenous in cells; host or cells: K562
The experiment in a line: Imatinib-matrix competition in K562 lysate. The conditions noted are these: read-out: RB50 (the source's name).
Text: as §1

A further test concerns the target T11, RPS6KB2 (Homo sapiens, UniProt Q9UBS0).
T11 construct: endogenous in cells; host or cells: K562
The experiment in a line: Imatinib-matrix competition in K562 lysate. The settings on record: read-out: RB50 (the source's name).
Text: as §1

In the next test the target is T12, SMG1 (Homo sapiens, UniProt Q96Q15).
T12 construct: endogenous in cells; host or cells: K562
In words: Imatinib-matrix competition in K562 lysate. The conditions noted are these: read-out: RB50 (the source's name).
Text: as §1

Another test concerns the target T13, SPEG (Homo sapiens, UniProt Q15772).
T13 construct: endogenous in cells; host or cells: K562
The experiment in a line: Imatinib-matrix competition in K562 lysate. The settings on record: read-out: RB50 (the source's name).
Text: as §1

A further test deals with T14, SRM (Homo sapiens, UniProt P19623).
T14 construct: K562 lysate (5 mg per treatment) was preincubated; endogenous in cells; host or cells: K562 lysate
The experiment in a line: Imatinib-matrix competition in K562 lysate. The settings on record: read-out: RB50 (the source's name).
Text: as §1

The target in the next test is T15, TFG (Homo sapiens, UniProt Q92734).
T15 construct: endogenous in cells; host or cells: K562
The experiment in a line: Imatinib-matrix competition in K562 lysate. The conditions noted are these: read-out: RB50 (the source's name).
Text: as §1

For a further test, the target named is T16, TKT (Homo sapiens, UniProt P29401).
T16 construct: endogenous in cells; host or cells: K562
The experiment in a line: Imatinib-matrix competition in K562 lysate. The settings on record: read-out: RB50 (the source's name).
Text: as §1

The next test addresses T17, TRIM28 (Homo sapiens, UniProt Q13263).
T17 construct: endogenous in cells; host or cells: K562
In words: Imatinib-matrix competition in K562 lysate. The settings on record: read-out: RB50 (the source's name).
Text: as §1

Another test has as its target T18, TRIM33 (Homo sapiens, UniProt Q9UPN9).
T18 construct: endogenous in cells; host or cells: K562
The experiment in a line: Imatinib-matrix competition in K562 lysate. The conditions noted are these: read-out: RB50 (the source's name).
Text: as §1

In the next test the target is T19, TRRAP (Homo sapiens, UniProt Q9Y4A5).
T19 construct: endogenous in cells; host or cells: K562
In words: Imatinib-matrix competition in K562 lysate. The conditions noted are these: read-out: RB50 (the source's name).
Text: as §1

In the next test the target is T20, TTN (Homo sapiens, UniProt Q8WZ42).
T20 construct: endogenous in cells; host or cells: K562
In words: Imatinib-matrix competition in K562 lysate. The settings on record: read-out: RB50 (the source's name).
Text: as §1

The next test has as its target T21, VRK1 (Homo sapiens, UniProt Q99986).
T21 construct: endogenous in cells; host or cells: K562
T21 sequence (Q99986 1-396): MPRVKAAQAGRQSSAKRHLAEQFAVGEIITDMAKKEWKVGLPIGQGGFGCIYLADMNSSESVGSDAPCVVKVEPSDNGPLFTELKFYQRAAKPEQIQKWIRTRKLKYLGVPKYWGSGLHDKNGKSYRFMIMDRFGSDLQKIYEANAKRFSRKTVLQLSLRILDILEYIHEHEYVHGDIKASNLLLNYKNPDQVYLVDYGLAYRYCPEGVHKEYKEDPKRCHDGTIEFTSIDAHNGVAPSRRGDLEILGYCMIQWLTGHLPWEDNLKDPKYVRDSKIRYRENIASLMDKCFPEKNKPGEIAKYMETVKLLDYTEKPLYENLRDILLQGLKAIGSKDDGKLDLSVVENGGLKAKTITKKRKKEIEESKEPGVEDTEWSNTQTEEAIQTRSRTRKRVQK
In words: Imatinib-matrix competition in K562 lysate. The settings on record: read-out: RB50 (the source's name).
Text: as §1

The target of another test is T22, VRK3 (Homo sapiens, UniProt Q8IV63).
T22 construct: endogenous in cells; host or cells: K562
The experiment in a line: Imatinib-matrix competition in K562 lysate. The conditions noted are these: read-out: RB50 (the source's name).
Text: as §1

With `N#CCc1ccc(Nc2nc(NCCCN)cc(Nc3cc(C4CC4)[nH]n3)n2)cc1` [KAM], on MAP3K11, the “0.001 uM KAM” value is -0.02883, the “0.1 uM KAM” value was -0.2112, the “1 uM KAM” value is reported as -0.4525 and the “10 uM KAM” value is -0.59.
In the case of `Cc1ccc(NC(=O)c2ccc(CN3CCN(C)CC3)cc2)cc1Nc1nccc(-c2cccnc2)n1` [Imatinib], the pIC50 on ALPK3, at ATR, at BRD4, on BUB1B, at CDC7 and at EEF2K was under 5.00 in each case. For the same molecule, the pIC50 at NRK, on PBK, on RP1, on RPS6KB2, on SMG1 and at SPEG was under 5.00 each time. Moreover, the pIC50 on SRM, on TFG, on TKT, on TRIM28, on TRIM33 and at TRRAP was under 5.00 each time. In addition, the pIC50 at TTN, on VRK1 and on VRK3 was under 5.00 throughout.

The values are drawn from publication PMC5513037, “Examining the influence of specificity ligands and ATP-competitive ligands on the overall effectiveness of bivalent kinase inhibitors” (Proteome Science, 2017).
